Assay results published in ChEMBL document CHEMBL5291721, “A preclinical secondary pharmacology resource illuminates target-adverse drug reaction associations of marketed drugs” (Nat Commun, 2023).

Experiments:
[1] = target: T1, Adenosine receptor A3 (Homo sapiens, UniProt P0DMS8)
T1 sequence (P0DMS8 whole entry): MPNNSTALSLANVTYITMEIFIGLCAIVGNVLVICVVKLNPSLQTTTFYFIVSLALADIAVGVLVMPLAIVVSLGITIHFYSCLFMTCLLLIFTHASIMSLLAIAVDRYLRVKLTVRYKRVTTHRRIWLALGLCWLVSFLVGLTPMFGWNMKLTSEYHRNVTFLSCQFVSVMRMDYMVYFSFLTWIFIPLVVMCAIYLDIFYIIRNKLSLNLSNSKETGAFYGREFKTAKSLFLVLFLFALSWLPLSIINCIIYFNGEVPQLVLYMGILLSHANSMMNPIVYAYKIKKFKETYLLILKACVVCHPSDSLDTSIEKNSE

[2] = target: T2, Cholecystokinin receptor type A (Homo sapiens, UniProt P32238)
T2 sequence (P32238 whole entry): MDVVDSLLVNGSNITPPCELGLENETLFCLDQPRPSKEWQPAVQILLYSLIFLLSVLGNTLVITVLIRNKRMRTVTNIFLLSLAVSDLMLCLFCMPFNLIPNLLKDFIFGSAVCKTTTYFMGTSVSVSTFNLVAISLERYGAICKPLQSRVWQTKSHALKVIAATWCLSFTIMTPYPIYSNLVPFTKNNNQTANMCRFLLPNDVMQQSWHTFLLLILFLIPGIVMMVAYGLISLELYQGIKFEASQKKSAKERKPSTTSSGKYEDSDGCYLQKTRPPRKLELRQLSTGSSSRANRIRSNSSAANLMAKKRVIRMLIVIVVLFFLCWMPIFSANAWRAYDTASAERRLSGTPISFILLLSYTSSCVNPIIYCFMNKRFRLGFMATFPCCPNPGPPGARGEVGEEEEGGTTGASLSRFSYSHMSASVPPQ

[3] = target: T3, 5-hydroxytryptamine receptor 1A (Homo sapiens, UniProt P08908); assay type: functional, cell-based
T3 sequence (P08908 whole entry): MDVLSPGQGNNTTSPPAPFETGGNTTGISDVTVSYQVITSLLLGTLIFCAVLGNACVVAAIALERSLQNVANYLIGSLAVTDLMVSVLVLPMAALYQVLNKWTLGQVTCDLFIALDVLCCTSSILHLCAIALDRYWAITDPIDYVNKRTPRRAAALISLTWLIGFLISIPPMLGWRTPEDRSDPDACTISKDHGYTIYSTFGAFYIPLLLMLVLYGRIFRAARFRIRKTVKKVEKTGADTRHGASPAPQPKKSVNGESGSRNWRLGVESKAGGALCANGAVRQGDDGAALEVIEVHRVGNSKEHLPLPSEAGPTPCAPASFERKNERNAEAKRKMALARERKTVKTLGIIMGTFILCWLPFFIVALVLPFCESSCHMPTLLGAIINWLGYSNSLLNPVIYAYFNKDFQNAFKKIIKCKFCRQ

[4] = target: Vasopressin V2 receptor (Homo sapiens, UniProt P30518)
Sequence of Vasopressin V2 receptor (P30518 whole entry): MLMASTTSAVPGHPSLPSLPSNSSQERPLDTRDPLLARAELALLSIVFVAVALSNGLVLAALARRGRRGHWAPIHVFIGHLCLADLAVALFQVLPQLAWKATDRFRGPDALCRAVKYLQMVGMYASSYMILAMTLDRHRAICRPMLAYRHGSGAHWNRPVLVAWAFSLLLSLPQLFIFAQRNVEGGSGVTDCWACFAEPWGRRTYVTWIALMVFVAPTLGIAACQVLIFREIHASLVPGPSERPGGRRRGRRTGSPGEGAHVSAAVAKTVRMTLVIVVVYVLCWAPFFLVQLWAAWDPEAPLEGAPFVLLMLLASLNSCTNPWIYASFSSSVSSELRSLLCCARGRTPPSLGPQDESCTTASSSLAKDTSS

[5] = target: Kappa-type opioid receptor (Homo sapiens, UniProt P41145)
Sequence of Kappa-type opioid receptor (P41145 whole entry): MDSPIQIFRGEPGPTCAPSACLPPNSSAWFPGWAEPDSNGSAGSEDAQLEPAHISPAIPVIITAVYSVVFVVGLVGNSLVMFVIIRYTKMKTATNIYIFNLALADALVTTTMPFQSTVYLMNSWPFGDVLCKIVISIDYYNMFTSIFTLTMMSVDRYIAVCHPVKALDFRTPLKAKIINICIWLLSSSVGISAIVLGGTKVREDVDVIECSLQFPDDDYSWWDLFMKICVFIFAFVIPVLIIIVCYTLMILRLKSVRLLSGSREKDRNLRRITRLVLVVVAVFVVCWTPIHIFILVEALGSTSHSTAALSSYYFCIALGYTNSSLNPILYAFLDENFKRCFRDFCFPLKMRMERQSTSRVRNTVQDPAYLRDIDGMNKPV

[6] = target: T4, Muscarinic acetylcholine receptor M2 (Homo sapiens, UniProt P08172); assay type: functional, cell-based
T4 sequence (P08172 whole entry): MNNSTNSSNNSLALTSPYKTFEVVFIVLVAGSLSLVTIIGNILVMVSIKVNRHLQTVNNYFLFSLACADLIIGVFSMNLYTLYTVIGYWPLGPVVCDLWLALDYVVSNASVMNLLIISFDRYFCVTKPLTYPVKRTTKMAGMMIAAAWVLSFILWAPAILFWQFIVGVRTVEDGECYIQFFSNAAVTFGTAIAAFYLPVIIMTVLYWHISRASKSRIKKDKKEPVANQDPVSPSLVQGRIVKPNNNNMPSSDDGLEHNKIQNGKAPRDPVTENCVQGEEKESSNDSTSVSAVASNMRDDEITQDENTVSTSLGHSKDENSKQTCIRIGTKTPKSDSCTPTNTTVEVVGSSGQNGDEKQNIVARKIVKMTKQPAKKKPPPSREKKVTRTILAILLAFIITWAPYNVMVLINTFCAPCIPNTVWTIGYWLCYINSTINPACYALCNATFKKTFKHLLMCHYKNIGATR

[7] = target: 5-hydroxytryptamine receptor 2B (Homo sapiens, UniProt P41595); assay type: functional, cell-based
Sequence of 5-hydroxytryptamine receptor 2B (P41595 whole entry): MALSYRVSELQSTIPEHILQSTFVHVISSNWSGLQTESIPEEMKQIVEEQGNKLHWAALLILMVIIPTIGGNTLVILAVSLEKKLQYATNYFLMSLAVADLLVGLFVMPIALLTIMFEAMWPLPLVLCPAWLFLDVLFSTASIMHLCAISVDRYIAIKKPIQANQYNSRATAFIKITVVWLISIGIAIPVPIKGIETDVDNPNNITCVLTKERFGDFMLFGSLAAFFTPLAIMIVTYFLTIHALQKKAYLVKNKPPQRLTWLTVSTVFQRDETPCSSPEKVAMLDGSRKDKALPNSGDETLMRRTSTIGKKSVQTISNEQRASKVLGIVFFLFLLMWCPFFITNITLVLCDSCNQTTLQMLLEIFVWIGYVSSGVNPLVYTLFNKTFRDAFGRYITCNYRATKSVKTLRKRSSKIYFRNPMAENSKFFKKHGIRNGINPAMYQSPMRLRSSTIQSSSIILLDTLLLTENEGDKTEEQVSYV

[8] = target: T3, 5-hydroxytryptamine receptor 1A; assay type: functional, cell-based; remark: listed apart in the source
[9] = target: T5, Alpha-1A adrenergic receptor (Homo sapiens, UniProt P35348); assay type: functional, cell-based
T5 sequence (P35348 whole entry): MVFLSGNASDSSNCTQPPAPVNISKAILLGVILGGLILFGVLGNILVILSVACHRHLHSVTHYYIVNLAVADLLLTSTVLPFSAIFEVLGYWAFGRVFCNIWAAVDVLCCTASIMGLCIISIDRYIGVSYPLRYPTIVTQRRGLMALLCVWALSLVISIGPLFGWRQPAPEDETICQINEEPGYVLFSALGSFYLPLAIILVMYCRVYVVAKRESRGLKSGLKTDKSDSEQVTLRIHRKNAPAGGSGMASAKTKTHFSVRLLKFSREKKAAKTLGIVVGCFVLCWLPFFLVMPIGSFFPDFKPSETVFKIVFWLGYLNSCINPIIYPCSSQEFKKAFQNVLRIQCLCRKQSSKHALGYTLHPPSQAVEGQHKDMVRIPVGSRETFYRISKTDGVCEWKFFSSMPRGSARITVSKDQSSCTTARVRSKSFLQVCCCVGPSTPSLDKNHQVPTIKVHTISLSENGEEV

[10] = target: cGMP-inhibited 3',5'-cyclic phosphodiesterase 3A (Homo sapiens, UniProt Q14432); assay type: functional
Sequence of cGMP-inhibited 3',5'-cyclic phosphodiesterase 3A (Q14432 whole entry): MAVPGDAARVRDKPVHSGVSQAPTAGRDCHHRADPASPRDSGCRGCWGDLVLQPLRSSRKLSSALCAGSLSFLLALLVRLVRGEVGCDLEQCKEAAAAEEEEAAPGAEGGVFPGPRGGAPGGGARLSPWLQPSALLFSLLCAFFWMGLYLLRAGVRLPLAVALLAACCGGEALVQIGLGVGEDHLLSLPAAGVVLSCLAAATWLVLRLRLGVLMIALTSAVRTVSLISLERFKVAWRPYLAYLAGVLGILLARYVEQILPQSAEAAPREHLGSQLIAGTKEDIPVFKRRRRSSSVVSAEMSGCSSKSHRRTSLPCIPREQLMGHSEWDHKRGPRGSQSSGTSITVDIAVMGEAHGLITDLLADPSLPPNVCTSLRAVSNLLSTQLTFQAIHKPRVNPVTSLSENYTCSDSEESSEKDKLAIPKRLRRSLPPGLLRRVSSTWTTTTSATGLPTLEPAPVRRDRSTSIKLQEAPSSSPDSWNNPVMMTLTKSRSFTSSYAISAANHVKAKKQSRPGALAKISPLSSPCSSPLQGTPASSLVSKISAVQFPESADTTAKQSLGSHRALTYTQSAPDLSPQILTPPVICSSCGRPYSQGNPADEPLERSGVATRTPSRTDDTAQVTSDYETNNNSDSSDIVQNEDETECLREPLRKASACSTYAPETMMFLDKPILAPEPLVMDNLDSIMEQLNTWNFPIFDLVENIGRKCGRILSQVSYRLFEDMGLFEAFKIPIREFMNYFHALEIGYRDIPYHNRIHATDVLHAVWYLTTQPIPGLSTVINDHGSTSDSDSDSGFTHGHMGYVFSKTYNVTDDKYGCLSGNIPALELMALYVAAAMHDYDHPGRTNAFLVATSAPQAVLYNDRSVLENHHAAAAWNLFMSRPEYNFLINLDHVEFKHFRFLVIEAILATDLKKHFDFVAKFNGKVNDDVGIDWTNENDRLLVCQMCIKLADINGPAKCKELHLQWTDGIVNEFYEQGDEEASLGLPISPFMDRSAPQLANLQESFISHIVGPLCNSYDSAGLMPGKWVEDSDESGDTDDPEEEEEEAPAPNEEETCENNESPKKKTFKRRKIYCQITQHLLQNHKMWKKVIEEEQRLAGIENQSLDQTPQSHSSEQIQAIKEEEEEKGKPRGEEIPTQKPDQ

[11] = target: Neuronal acetylcholine receptor subunit alpha-4 (Homo sapiens, UniProt P43681)
Sequence of Neuronal acetylcholine receptor subunit alpha-4 (P43681 whole entry): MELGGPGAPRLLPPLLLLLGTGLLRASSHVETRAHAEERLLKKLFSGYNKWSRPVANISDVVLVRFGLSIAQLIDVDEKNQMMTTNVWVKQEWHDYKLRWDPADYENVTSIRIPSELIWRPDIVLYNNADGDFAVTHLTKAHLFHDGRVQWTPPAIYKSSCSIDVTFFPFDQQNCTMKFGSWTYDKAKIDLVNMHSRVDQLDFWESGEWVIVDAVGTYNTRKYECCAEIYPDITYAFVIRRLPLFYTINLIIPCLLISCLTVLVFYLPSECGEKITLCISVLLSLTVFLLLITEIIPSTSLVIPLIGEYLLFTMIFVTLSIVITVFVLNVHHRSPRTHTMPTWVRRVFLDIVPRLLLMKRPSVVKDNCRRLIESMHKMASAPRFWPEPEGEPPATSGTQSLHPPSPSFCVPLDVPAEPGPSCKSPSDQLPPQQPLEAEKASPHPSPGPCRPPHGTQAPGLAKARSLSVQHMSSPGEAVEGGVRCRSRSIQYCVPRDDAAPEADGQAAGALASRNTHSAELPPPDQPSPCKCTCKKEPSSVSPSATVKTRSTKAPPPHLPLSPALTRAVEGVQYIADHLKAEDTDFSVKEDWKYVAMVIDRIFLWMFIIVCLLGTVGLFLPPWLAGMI

[12] = target: Beta-1 adrenergic receptor (Homo sapiens, UniProt P08588); assay type: functional
Sequence of Beta-1 adrenergic receptor (P08588 whole entry): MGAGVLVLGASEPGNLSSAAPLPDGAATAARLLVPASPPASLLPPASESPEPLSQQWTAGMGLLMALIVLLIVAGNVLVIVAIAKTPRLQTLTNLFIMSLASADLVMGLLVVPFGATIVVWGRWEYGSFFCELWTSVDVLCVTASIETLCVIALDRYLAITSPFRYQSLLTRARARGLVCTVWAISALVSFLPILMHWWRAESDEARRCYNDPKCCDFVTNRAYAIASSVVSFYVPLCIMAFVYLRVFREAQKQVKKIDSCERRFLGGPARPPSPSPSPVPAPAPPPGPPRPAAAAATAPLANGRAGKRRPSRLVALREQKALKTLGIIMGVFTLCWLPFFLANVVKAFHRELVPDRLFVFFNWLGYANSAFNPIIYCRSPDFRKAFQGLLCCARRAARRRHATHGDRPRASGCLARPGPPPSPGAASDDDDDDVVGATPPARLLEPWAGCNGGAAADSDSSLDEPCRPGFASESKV

[13] = target: Cannabinoid receptor 1 (Homo sapiens, UniProt P21554); assay type: functional, cell-based
Sequence of Cannabinoid receptor 1 (P21554 whole entry): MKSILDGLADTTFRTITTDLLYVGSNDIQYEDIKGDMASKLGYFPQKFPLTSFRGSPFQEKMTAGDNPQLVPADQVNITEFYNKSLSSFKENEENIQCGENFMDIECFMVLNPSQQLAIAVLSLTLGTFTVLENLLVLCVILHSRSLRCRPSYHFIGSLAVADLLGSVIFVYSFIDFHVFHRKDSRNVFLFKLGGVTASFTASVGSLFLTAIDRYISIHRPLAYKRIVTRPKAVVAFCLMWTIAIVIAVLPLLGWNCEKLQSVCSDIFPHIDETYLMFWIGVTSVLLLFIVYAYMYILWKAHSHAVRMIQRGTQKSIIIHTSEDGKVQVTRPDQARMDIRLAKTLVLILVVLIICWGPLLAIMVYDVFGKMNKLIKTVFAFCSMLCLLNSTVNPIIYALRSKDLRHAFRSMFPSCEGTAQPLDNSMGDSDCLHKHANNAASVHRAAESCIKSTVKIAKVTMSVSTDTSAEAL

[14] = target: T6, Gamma-aminobutyric acid receptor subunit alpha-1 (Rattus norvegicus, UniProt P62813)
T6 sequence (P62813 whole entry): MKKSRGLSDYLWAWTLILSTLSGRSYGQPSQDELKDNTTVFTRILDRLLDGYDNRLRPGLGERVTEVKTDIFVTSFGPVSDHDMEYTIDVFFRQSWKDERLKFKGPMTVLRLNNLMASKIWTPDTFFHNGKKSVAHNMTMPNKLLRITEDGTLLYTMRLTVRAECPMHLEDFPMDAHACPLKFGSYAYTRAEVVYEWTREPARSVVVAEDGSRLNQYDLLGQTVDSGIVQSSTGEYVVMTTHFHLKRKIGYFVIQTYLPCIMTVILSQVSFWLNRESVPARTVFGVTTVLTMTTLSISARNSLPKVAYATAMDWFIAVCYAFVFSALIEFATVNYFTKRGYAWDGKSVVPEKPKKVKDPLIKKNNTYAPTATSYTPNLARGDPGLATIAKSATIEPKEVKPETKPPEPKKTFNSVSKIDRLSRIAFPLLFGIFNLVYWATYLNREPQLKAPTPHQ

[15] = target: T6, Gamma-aminobutyric acid receptor subunit alpha-1; assay type: functional
Also: assay procedure not described here.

Structure (SMILES)	AC50 [1]	AC50 [2]	AC50 [3]	AC50 [4]	AC50 [5]	AC50 [6]	AC50 [7]	AC50 [8]	AC50 [9]	AC50 [10]	AC50 [11]	AC50 [12]	AC50 [13]	AC50 [14]	AC50 [15]
Nc1nc(Cl)nc2c1ncn2[C@H]1C[C@H](O)[C@@H](CO)O1 [CLADRIBINE]	> 30 µM	> 30 µM	> 30 µM	> 30 µM	> 30 µM	> 30 µM	> 30 µM	> 30 µM	> 30 µM	28 µM	> 30 µM	> 30 µM	> 30 µM	> 30 µM	
NC(=O)CN1CC(O)CC1=O (centres undefined) [OXIRACETAM]	> 30 µM	> 30 µM	> 30 µM	> 30 µM	> 30 µM	> 30 µM	> 30 µM	> 30 µM	> 30 µM	> 30 µM	> 30 µM	> 30 µM	> 30 µM	> 30 µM	> 30 µM
C[C@@H]1O[C@@H](O[C@@H]2C=C3CC[C@@H]4[C@H](CC[C@]5(C)[C@@H](c6ccc(=O)oc6)CC[C@]45O)[C@@]3(C)CC2)[C@H](O)[C@H](O)[C@H]1O [PROSCILLARIDIN]	> 30 µM	> 30 µM	> 30 µM	> 30 µM	> 30 µM	> 30 µM	> 30 µM	> 30 µM	> 30 µM	> 30 µM	> 30 µM	> 30 µM	> 30 µM	> 30 µM	> 30 µM
C#C[C@]1(O)CC[C@H]2[C@@H]3[C@H](C)CC4=C(CCC(=O)C4)[C@H]3CC[C@@]21C [TIBOLONE]	8.1 µM	> 30 µM	> 30 µM	> 30 µM	19 µM	> 30 µM	> 30 µM	> 30 µM	> 30 µM	> 30 µM	> 30 µM	> 30 µM	> 30 µM	> 30 µM	30 µM
